Test results reported in patent publication US20240245659A1, “Methods of Treating Cushing's Syndrome and Liver Disorders, and of Reducing Liver Toxicity of Other Drugs Administered to a Patient” (Corcept Therapeutics Incorporated, priority 2022, published 2024).

Columns and labels:
[1] = target: T1, glucocorticoid receptor type 2 (GR) (Homo sapiens, UniProt P04150); conditions: cited from earlier work
T1 sequence (P04150 1-777): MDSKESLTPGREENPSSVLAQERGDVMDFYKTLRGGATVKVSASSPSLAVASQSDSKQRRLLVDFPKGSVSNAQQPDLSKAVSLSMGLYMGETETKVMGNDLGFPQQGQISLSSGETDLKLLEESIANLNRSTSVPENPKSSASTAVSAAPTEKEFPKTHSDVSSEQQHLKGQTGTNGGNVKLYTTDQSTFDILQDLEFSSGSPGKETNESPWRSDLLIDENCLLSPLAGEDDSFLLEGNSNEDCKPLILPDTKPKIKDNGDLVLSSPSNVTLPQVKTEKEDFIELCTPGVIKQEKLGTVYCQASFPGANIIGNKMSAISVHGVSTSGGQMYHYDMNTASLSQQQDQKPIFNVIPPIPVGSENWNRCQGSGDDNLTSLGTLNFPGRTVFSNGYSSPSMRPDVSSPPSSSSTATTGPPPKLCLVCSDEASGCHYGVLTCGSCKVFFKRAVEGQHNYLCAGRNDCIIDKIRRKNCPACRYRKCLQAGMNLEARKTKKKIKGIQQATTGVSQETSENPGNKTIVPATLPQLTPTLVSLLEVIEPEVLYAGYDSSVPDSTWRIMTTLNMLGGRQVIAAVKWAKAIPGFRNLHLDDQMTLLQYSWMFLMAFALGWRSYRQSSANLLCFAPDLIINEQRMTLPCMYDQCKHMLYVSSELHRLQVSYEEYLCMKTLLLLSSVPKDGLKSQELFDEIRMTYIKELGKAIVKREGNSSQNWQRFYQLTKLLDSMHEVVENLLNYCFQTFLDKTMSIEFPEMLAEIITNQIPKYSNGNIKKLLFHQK

[2] = Phase 1 hepatic impairment study of relacorilant (moderate hepatic impairment vs matched controls); format: in vivo, human
Description: A phase 1, open-label, multiple-dose study included 18 subjects (18-70 years). Of these subjects, 9 subjects had moderate hepatic impairment (Child—Pugh Class B) and 9 subjects were controls with normal hepatic function matched for age, sex, and body weight.
Relacorilant was administered at a dose of 300 mg/day for 10 days under fasted conditions. Blood samples for pharmacokinetic (PK) analysis were collected before dosing on Day 1 and from before dosing on Day 10 through 144 hours after the last dose of study drug (Day 16).
Subjects with moderate hepatic impairment were well matched for age, sex, and body weight Mean total Child-Pugh score of 7.9 (range: 7-9) in subjects with moderate hepatic impairment. Liver function was assessed by measurements of alanine aminotransferase (ALT) and aspartate aminotransferase (AST) levels.

CYP2C8 = target: T2, CYP2C8 (Homo sapiens, UniProt P10632); conditions: on administration; cited from earlier work
T2 sequence (P10632 1-490): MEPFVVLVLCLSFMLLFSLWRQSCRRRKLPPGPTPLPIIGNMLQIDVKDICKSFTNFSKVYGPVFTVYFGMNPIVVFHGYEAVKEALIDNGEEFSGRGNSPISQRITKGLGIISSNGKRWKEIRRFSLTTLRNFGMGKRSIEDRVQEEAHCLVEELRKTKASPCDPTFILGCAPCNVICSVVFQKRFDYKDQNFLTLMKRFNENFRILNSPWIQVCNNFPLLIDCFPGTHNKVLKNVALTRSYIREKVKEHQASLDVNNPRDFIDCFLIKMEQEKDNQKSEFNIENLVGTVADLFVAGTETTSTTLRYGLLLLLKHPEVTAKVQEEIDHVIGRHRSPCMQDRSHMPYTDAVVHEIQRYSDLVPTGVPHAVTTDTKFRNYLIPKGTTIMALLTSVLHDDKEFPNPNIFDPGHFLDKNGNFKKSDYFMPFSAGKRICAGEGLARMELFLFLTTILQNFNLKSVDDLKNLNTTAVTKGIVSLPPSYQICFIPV

CYP2C9 = CYP2C9 (Homo sapiens, UniProt P11712); conditions: on administration; cited from earlier work
[3] = Cushing's syndrome patients; cited from earlier work
CYP3A4 = CYP3A4 (Homo sapiens, UniProt P08684); conditions: in vivo; cited from earlier work
[4] = via CYP3A and carbonyl reductase; cited from earlier work
progesterone receptor = target: T3, progesterone receptor (Homo sapiens, UniProt P06401); conditions: cited from earlier work
T3 sequence (P06401 1-933): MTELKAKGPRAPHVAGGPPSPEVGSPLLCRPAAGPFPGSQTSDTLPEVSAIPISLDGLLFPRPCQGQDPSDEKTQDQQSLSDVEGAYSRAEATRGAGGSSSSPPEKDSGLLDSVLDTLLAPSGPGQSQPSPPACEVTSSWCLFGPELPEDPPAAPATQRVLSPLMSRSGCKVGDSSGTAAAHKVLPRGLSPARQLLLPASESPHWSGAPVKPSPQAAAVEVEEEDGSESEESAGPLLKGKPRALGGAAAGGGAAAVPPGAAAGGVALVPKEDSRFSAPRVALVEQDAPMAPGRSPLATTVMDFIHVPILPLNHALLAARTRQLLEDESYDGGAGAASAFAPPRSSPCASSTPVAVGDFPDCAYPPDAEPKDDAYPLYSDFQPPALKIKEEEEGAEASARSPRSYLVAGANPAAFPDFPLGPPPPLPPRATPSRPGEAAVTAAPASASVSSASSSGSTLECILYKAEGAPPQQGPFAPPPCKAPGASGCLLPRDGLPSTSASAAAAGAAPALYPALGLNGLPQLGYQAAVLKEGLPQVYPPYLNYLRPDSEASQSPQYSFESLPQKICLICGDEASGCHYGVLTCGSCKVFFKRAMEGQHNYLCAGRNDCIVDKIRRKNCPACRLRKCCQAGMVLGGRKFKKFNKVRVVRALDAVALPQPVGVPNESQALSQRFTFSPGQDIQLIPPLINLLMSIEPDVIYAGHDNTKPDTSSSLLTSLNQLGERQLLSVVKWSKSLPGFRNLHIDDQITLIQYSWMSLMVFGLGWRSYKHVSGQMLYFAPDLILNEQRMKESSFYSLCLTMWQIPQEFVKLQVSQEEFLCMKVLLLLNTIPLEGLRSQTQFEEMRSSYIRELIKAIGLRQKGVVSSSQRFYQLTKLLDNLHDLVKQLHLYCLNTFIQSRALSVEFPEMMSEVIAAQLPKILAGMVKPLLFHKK

[5] = Phase 2 Cushing's syndrome study, low-dose and high-dose groups; format: in vivo, human
Description: A multicenter, open-label study with two dose groups enrolled 34 patients (aged 18-80 years) with endogenous Cushing's Syndrome (CS) and impaired glucose tolerance or type 2 diabetes mellitus and/or uncontrolled or untreated hypertension. Patients with elevated AST or ALT (elevated defined as greater than 3-times the ULN) were excluded. These patients were treated with relacorilant at two dosage levels. The dosages for each group were escalated in 50-mg dose increments every 4 weeks. The low dose group received relacorilant beginning at a dose of 100 mg/day, escalating to dosages of 200 mg/day during the duration of the 12-week treatment. The high-dose group received relacorilant beginning at a dose of 250 mg/day, escalating to a dosage of 400 mg/day during the duration of the 16-week treatment. The P-values shown are the P-values for the mean change from baseline to last observation calculated from the Wilcoxon signed-rank test. The Efficacy Population includes all patients treated with relacorilant who had postbaseline data.

Sequence of CYP2C9 (P11712 whole entry): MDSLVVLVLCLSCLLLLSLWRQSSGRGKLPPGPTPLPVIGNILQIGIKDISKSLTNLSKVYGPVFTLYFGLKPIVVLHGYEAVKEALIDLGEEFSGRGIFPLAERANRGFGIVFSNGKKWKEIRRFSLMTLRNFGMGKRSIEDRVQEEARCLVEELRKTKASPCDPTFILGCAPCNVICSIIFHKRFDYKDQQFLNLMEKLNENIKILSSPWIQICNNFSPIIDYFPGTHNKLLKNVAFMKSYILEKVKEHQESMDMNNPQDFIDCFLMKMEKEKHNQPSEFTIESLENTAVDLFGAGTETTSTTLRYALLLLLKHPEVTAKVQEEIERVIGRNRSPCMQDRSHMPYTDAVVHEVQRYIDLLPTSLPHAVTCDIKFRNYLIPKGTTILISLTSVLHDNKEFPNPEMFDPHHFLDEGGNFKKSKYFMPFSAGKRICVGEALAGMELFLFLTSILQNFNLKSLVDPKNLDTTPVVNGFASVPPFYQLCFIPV
Sequence of CYP3A4 (P08684 whole entry): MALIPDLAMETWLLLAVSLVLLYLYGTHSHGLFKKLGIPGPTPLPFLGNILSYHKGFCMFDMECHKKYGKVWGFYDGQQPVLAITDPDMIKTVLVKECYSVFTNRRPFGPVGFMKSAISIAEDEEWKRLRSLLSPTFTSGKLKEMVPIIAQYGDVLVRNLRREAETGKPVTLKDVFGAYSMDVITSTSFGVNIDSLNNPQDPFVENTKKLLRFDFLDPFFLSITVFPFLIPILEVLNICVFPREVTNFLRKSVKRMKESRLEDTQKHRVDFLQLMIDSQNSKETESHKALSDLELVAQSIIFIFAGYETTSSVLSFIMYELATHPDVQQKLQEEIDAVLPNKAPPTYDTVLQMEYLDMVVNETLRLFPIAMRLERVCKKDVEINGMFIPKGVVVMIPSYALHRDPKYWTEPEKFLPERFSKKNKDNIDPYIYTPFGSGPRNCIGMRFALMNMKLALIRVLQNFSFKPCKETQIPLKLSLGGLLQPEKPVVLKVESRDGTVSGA

pharmacokinetic difference, moderate hepatic impairment vs matched controls ([2]; 300 mg/day for 10 days, fasted): No apparent difference | relacorilant exposures (area under the curve and maximum plasma concentration) across both groups ([2]; moderate hepatic impairment vs matched controls): largely overlapped | change in LFTs, baseline to last observation ([5]; both dose groups (100-200 mg/day 12 weeks; 250-400 mg/day 16 weeks)): Reductions | change in LFTs, high-dose group compared with low-dose group ([5]; high-dose group 250-400 mg/day, 16 weeks): greater reductions
SMILES: Cn1cc(S(=O)(=O)N2CCC3=Cc4c(cnn4-c4ccc(F)cc4)C[C@]3(C(=O)c3cc(C(F)(F)F)ccn3)C2)cn1 [relacorilant, (R)-(1-(4-fluorophenyl)-6-((1-methyl-1H-pyrazol-4-yl)sulfonyl)-4,4a,5,6,7,8-hexahydro-1H-pyrazolo[3,4-g]isoquinolin-4a-yl)(4-(trifluoromethyl)pyridin-2-yl)methanone]
binding to GR [1]: binds | change in mean liver function tests (ALT, AST) ([2]; patients with moderate hepatic impairment, 300 mg/day for 10 days, fasted, baseline to Day 16): Reductions | CYP2C8 inhibition (CYP2C8): does not result in clinically significant inhibition | CYP2C9 inhibition (CYP2C9): does not result in clinically significant inhibition | antiprogesterone effects or drug-induced hypokalemia [3]: without antiprogesterone effects or drug-induced hypokalemia | effect on hypertension and hyperglycemia [3]: clinically meaningful improvement | other cortisol-excess-related comorbidities (hypercoagulopathy, cognitive function, mood, quality of life) [3]: Improvement | CYP3A4 inhibition (CYP3A4): strong CYP3A4 inhibitor | route of elimination [4]: primarily hepatic | affinity for the progesterone receptor (progesterone receptor): lacks affinity | normalization of ALT in patients with abnormal ALT values at baseline ([5]; Cushing's syndrome patients): 2 of 4
